Test results taken from paper PMC12119672, “Development and evaluation of [^11C]DPA-813 and [^18F]DPA-814: novel TSPO PET tracers insensitive to human single nucleotide polymorphism rs6971” (European Journal of Nuclear Medicine and Molecular Imaging, 2025).
Marks after values point to notes of the source that are not given here.

Legend:
A147T human TSPO = molecular target: T1, A147T human TSPO (Homo sapiens, UniProt P30536); experiment: Competition radioligand binding vs [3H]PK 11195, membranes of transfected HEK-293T cells (A147T TSPO); conditions: for Ki: vs [3H]PK 11195 (10 nM), HEK-293T membranes, mean ± SEM, read-out: Ki A147T hTSPO; for increase in affinity to A147T TSPO versus parent compound: DPA-813 vs DPA-713, DPA-814 vs DPA-714
T1 construct: expressed in transfected cells
T1 sequence (P30536 whole entry, stated change not applied): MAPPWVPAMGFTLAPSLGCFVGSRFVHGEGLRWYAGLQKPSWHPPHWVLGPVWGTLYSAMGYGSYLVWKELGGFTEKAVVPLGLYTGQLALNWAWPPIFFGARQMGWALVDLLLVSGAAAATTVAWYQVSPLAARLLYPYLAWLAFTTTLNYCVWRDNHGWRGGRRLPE
Experimental: (§1) Binding affinities (Ki) to wild-type (WT) and A147T human TSPO were assessed using a previously published method. HEK-293T cells were stably transfected with WT and A147T TSPO. Membranes were isolated from each cell line using an Ultra-Turrax hand-held homogeniser. These cells have been previously validated as an in vitro model for low- and high-affinity TSPO binding. […] Non-specific binding was determined using a saturating concentration (1 µM) of non-tritiated PK 11195. This non-specific binding contributed less than 10% of total binding. Reactions were halted by filtering through a 96-well glass-fibre filter plate (Millipore), followed by eight washes with ice-cold 50 mM Tris HCl. Microscint 0 was added to the plate and resultant radioactivity-related photons were collected by a Microbeta 2450 (PerkinElmer). Ki values were fit to a competition binding curve fit on non-specific binding-corrected data using GraphPad Prism 10.0 (GraphPad). Results are presented as mean ± standard error of the mean (SEM) from at least three independent experiments. Binding affinities (Ki) to rat TSPO were measured in duplicate by Eurofins Panlabs Discovery Services (assay #226700) (Supplementary Fig. 12). Single-dose (10 µM) off-target in vitro screening was performed in duplicate by Eurofins Panlabs Discovery Services (Supplementary Table 5).
(§2) In vitro binding affinities (Ki) for human TSPO were initially assessed using a competition radioligand assay against [^3H]PK 11195 in our well-characterised assay using membranes isolated from transfected HEK-293T cells overexpressing either WT or A147T TSPO [32]. This structure-activity relationship study will be reported in a separate publication. […] Data for DPA-713 and DPA-714 are included for comparison.

WT human TSPO [1] = molecular target: T2, WT human TSPO (Homo sapiens, UniProt P30536); experiment: Competition radioligand binding vs [3H]PK 11195, membranes of transfected HEK-293T cells (WT TSPO); conditions: vs [3H]PK 11195 (10 nM), HEK-293T membranes, mean ± SEM; read-out: Ki WT hTSPO
T2 construct: expressed in transfected cells
T2 sequence (P30536 whole entry T147A): as the sequence (P30536 whole entry, stated change not applied) above, with T147A counted along it
Experimental: as §1, §2

[2] = distribution coefficient; cited from earlier work
MAO-B = molecular target: T3, MAO-B (Homo sapiens, UniProt P27338); experiment: Off-target screen, 10 µM single dose (Eurofins), enzymatic functional readout; type: biochemical; conditions: n = 2, read-out: % Binding Inhibition at 10 μM, MAO-B
T3 construct: purchased Eurofins Panlabs Discovery Services
T3 sequence (P27338 whole entry): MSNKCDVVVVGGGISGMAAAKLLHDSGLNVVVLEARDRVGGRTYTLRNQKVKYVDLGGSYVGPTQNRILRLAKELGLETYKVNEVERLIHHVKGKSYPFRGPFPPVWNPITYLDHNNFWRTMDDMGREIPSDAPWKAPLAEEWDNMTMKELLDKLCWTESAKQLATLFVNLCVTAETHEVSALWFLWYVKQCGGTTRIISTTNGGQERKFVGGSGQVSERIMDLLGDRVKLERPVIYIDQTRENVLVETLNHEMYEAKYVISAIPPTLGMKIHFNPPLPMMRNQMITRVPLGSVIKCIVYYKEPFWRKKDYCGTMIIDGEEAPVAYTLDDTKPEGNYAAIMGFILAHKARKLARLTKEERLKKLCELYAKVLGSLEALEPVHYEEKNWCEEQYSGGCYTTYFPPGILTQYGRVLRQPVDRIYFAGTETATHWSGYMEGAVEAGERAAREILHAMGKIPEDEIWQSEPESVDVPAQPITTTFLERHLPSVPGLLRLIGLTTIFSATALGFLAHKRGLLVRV
Experimental: as §1, with “Results are presented as mean ± standard error of the mean (SEM) from at least three independent experiments.” left out, “Single-dose (10 µM) off-target in vitro screening was performed in duplicate by Eurofins Panlabs Discovery Services (Supplementary Table 5).” left out
(§3) Supplementary Table 5. […] 10 μM single dose (n = 2) screen performed by Eurofins Panlabs Discovery. ^a All targets are human receptors. ^b Inhibition of antagonist radioligand binding. ^c Inhibition of agonist radioligand binding. ^d Enzymatic functional readout.

[3] = test system: Central Benzodiazepine Receptor; experiment: Off-target screen, 10 µM single dose (Eurofins); design: species or system human; conditions: n = 2, inhibition of agonist radioligand binding
Experimental: as §1, with “Results are presented as mean ± standard error of the mean (SEM) from at least three independent experiments.” left out, “Single-dose (10 µM) off-target in vitro screening was performed in duplicate by Eurofins Panlabs Discovery Services (Supplementary Table 5).” left out
as §3

WT human TSPO [4] = molecular target: T4, WT human TSPO (Homo sapiens, UniProt P30536, T147A); experiment: Competition radioligand binding vs [3H]PK 11195, membranes of transfected HEK-293T cells (WT TSPO); conditions: DPA-813 vs DPA-713; DPA-814 vs DPA-714
T4 construct: expressed in transfected cells
T4 sequence (P30536 whole entry T147A): as the sequence (P30536 whole entry, stated change not applied) above, with T147A counted along it
Experimental: as §1, §2

5-HT2A = molecular target: T5, 5-HT2A (Homo sapiens, UniProt P28223); experiment: Off-target screen, 10 µM single dose (Eurofins); conditions: read-out: % Binding Inhibition at 10 μM, 5-HT2A
T5 construct: purchased Eurofins Panlabs Discovery Services
T5 sequence (P28223 whole entry): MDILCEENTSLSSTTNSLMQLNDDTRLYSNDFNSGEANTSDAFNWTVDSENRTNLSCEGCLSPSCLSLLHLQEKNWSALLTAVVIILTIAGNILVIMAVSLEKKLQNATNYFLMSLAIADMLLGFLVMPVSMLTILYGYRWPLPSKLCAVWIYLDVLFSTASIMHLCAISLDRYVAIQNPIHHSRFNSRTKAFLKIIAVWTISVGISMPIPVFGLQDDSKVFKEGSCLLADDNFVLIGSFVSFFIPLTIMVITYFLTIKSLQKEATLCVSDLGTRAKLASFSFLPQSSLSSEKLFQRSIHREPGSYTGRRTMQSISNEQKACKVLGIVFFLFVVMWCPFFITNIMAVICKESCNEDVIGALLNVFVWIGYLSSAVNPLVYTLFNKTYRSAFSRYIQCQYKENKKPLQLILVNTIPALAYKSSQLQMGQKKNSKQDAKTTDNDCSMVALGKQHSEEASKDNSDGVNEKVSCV
Experimental: as §1
(§4) Supplementary Table 5. Off-target binding to common CNS targets. 10 μM single dose (n = 2) screen performed by Eurofins Panlabs Discovery. ^a All targets are human receptors. ^b Inhibition of antagonist radioligand binding. ^c Inhibition of agonist radioligand binding. ^d Enzymatic functional readout.

M1 = molecular target: T6, M1 (Homo sapiens, UniProt P11229); experiment: Off-target screen, 10 µM single dose (Eurofins); conditions: read-out: % Binding Inhibition at 10 μM, M1
T6 construct: purchased Eurofins Panlabs Discovery Services
Experimental: as §1, §4

MOP = molecular target: T7, MOP (Homo sapiens, UniProt P35372); experiment: Off-target screen, 10 µM single dose (Eurofins); conditions: read-out: % Binding Inhibition at 10 μM, MOP
T7 construct: purchased Eurofins Panlabs Discovery Services
Experimental: as §1, §4

NET = molecular target: T8, NET (Homo sapiens, UniProt P23975); experiment: Off-target screen, 10 µM single dose (Eurofins); conditions: read-out: % Binding Inhibition at 10 μM, NET
T8 construct: purchased Eurofins Panlabs Discovery Services
Experimental: as §1, §4

CB1 = molecular target: T9, CB1 (Homo sapiens, UniProt P21554); experiment: Off-target screen, 10 µM single dose (Eurofins); conditions: read-out: % Binding Inhibition at 10 μM, CB1
T9 construct: purchased Eurofins Panlabs Discovery Services
T9 sequence (P21554 whole entry): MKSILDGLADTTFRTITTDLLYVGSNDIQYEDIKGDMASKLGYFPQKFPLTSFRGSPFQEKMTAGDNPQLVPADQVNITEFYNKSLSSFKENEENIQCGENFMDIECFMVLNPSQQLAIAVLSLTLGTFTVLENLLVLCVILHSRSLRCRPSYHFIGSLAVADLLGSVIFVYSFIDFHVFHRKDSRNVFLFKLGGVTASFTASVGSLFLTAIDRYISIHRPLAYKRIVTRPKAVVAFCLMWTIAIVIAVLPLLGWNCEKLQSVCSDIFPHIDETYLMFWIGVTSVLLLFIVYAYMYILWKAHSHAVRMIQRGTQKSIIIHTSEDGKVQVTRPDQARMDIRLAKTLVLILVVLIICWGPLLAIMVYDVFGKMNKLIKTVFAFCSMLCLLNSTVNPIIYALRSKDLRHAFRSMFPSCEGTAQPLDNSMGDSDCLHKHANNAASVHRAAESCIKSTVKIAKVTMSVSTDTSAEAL
Experimental: as §1, §4

β2 Adrenergic receptor = molecular target: T10, β2 Adrenergic receptor (Homo sapiens, UniProt P07550); experiment: Off-target screen, 10 µM single dose (Eurofins); conditions: read-out: % Binding Inhibition at 10 μM, β2 Adrenergic receptor
T10 construct: purchased Eurofins Panlabs Discovery Services
T10 sequence (P07550 whole entry): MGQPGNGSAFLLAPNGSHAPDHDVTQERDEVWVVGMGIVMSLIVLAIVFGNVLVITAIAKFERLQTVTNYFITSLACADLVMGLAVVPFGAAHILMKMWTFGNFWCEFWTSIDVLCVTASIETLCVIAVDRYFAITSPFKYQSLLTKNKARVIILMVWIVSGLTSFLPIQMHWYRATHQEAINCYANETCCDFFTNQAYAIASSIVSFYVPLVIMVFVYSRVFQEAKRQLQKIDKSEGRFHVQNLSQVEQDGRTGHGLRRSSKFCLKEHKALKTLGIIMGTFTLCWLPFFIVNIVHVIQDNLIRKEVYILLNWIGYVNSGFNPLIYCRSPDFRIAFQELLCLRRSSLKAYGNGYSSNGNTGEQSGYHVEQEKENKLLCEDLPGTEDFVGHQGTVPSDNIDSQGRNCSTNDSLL
Experimental: as §1, §4

5-HT2B = molecular target: T11, 5-HT2B (Homo sapiens, UniProt P41595); experiment: Off-target screen, 10 µM single dose (Eurofins); conditions: read-out: % Binding Inhibition at 10 μM, 5-HT2B
T11 construct: purchased Eurofins Panlabs Discovery Services
T11 sequence (P41595 whole entry): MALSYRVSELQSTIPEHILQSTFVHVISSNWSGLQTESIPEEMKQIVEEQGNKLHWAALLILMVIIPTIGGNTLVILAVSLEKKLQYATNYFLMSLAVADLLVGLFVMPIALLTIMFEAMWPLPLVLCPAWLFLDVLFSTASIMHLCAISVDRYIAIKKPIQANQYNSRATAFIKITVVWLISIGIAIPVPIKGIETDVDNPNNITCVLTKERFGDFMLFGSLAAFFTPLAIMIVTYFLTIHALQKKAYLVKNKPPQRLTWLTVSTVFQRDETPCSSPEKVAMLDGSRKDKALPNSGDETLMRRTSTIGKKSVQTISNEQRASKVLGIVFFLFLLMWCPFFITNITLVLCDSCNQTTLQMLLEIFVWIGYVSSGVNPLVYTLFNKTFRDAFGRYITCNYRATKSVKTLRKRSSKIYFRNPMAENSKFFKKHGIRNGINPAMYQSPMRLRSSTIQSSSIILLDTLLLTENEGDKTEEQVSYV
Experimental: as §1, §4

D2L = molecular target: T12, D2L (Homo sapiens, UniProt P14416); experiment: Off-target screen, 10 µM single dose (Eurofins); conditions: read-out: % Binding Inhibition at 10 μM, D2L
T12 construct: purchased Eurofins Panlabs Discovery Services
T12 sequence (P14416 whole entry): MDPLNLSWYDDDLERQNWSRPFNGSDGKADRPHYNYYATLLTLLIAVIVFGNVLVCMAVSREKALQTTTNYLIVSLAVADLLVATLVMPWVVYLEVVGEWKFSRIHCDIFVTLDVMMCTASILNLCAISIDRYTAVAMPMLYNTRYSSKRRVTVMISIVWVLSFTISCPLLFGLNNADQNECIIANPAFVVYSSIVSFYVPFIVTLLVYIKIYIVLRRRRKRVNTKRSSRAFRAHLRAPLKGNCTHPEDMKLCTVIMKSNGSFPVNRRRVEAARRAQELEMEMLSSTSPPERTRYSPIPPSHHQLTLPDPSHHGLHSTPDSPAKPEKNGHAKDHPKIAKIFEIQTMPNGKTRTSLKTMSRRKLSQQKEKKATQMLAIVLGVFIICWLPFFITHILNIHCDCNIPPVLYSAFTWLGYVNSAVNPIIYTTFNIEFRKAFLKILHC
Experimental: as §1, §4

SERT = molecular target: T13, SERT (Homo sapiens, UniProt P31645); experiment: Off-target screen, 10 µM single dose (Eurofins); conditions: read-out: % Binding Inhibition at 10 μM, SERT
T13 construct: purchased Eurofins Panlabs Discovery Services
T13 sequence (P31645 whole entry): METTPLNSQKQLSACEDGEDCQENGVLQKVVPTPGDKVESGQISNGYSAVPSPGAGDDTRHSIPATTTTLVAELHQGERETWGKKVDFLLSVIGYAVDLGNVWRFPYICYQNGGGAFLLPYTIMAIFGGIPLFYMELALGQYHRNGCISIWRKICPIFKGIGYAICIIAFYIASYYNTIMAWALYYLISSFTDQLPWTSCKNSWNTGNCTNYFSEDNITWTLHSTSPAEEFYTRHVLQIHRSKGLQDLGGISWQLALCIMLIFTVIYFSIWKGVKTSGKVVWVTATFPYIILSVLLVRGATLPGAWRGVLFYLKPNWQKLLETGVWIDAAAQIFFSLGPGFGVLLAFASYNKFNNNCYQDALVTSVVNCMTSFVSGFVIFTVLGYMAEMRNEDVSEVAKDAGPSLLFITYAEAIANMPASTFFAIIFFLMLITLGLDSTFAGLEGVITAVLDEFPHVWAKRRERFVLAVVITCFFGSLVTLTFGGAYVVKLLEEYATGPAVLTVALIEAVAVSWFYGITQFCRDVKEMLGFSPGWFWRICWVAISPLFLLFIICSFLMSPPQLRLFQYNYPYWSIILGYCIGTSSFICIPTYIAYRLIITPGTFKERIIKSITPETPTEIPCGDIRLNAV
Experimental: as §1, §4

CB2 = molecular target: T14, CB2 (Homo sapiens, UniProt P34972); experiment: Off-target screen, 10 µM single dose (Eurofins); conditions: read-out: % Binding Inhibition at 10 μM, CB2
T14 construct: purchased Eurofins Panlabs Discovery Services
T14 sequence (P34972 whole entry): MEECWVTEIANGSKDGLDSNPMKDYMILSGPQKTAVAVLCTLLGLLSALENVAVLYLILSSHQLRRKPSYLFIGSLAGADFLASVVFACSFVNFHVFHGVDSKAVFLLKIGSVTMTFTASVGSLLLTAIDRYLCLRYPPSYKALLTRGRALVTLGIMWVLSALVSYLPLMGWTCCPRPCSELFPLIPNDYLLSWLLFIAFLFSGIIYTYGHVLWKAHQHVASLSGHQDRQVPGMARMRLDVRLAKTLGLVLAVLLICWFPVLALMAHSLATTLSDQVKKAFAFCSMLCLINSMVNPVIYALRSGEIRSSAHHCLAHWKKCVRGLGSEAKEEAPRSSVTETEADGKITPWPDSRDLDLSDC
Experimental: as §1, §4

D1 = molecular target: T15, D1 (Homo sapiens, UniProt P21728); experiment: Off-target screen, 10 µM single dose (Eurofins); conditions: read-out: % Binding Inhibition at 10 μM, D1
T15 construct: purchased Eurofins Panlabs Discovery Services
Experimental: as §1, §4

nAChR (α4/β2) = molecular target: T16, nAChR (α4/β2) (Homo sapiens, UniProt P17787+P43681); experiment: Off-target screen, 10 µM single dose (Eurofins); conditions: read-out: % Binding Inhibition at 10 μM, nAChR (α4/β2)
T16 construct: purchased Eurofins Panlabs Discovery Services
Experimental: as §1, §4

DAT = molecular target: T17, DAT (Homo sapiens, UniProt Q01959); experiment: Off-target screen, 10 µM single dose (Eurofins); conditions: read-out: % Binding Inhibition at 10 μM, DAT
T17 construct: purchased Eurofins Panlabs Discovery Services
T17 sequence (Q01959 whole entry): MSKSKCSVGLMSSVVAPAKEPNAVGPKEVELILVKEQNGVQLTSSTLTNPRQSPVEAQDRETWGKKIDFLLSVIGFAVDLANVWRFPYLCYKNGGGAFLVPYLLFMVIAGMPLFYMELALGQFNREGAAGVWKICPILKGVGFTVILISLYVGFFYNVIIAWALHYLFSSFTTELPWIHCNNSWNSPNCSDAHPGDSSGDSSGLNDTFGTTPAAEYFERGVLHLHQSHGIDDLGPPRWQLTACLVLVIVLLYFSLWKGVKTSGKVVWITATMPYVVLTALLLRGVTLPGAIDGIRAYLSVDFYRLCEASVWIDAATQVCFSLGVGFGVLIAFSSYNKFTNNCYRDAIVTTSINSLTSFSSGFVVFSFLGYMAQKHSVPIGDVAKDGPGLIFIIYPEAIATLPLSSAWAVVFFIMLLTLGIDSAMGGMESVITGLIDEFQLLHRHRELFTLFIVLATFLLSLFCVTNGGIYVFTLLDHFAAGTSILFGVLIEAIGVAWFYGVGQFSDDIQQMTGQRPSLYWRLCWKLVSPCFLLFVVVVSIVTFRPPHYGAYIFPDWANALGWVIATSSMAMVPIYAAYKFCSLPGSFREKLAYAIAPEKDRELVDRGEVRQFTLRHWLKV
Experimental: as §1, §4

[5] = Lipophilicity (logD at pH 7.4) by gradient HPLC; type: physicochemical; conditions: gradient HPLC retention correlated with standard compounds; pH 7.4, gradient HPLC; read-out: logD7.4
Description: Partition coefficient values (logD) were estimated at pH 7.4 by correlating chromatographic retention properties against the characteristics of a series of standard compounds with known partition coefficient values. The method employed a gradient HPLC based on a previously published method.

rat TSPO = molecular target: T18, rat TSPO (Rattus norvegicus, UniProt P16257); experiment: Competitive binding to rat TSPO vs [3H]PK 11195 (Eurofins assay #226700, rat heart membranes); conditions: vs [3H]PK 11195, result in words
T18 construct: Heart of male Wistar derived rats weighing 175 ± 25 g are used to prepare peripheral benzodiazepine membrane receptors [TSPO]; tissue Eurofins Panlabs Discovery Services assay #226700; host or cells: rat heart (male Wistar derived)
Experimental: as §1
Supplementary Figure 12 Dose-response curves and binding affinities of DPA-813 and DPA-814 showing competitive binding to rat TSPO vs [^3H]PK 11195. Method from Eurofins: Heart of male Wistar derived rats weighing 175 ± 25 g are used to prepare peripheral benzodiazepine membrane receptors [TSPO] in modified Tris-HCl buffer pH 7.5. A 0.25 mg aliquot is incubated with 0.3 nM [^3H]PK 11195 for 15 minutes at 25 °C. Non-specific binding is estimated in the presence of 100 μM Dipyridamole. Membranes are filtered and washed, the filters are then counted to determine [^3H]PK 11195 specifically bound.

A147T TSPO = test system: A147T TSPO; design: method as in PMID 30900397; conditions: cited from earlier work

Row | SMILES | Ki (A147T human TSPO) [nM] | Ki (WT human TSPO [1]) [nM] | inhibition at 10 µM (MAO-B) [%] | increase in affinity to A147T TSPO versus parent compound (A147T human TSPO) | % Binding Inhibition at 10 μM, Central Benzodiazepine Receptor [3] [%] | increase in affinity to WT TSPO versus parent compound (WT human TSPO [4]) | inhibition at 10 µM (5-HT2A) [%] | inhibition at 10 µM (M1) [%] | inhibition at 10 µM (MOP) [%] | inhibition at 10 µM (NET) [%] | inhibition at 10 µM (CB1) [%] | inhibition at 10 µM (β2 Adrenergic receptor) [%] | inhibition at 10 µM (5-HT2B) [%] | inhibition at 10 µM (D2L) [%] | inhibition at 10 µM (SERT) [%] | inhibition at 10 µM (CB2) [%] | inhibition at 10 µM (D1) [%] | inhibition at 10 µM (nAChR (α4/β2)) [%] | inhibition at 10 µM (DAT) [%] | chromatographic logD [5] | further results
1 | CCN(CC)C(=O)Cc1c(-c2ccc(OCCF)cc2)nn2c(C)cc(C)nc12 [DPA-714, reference compound] | 260 ± 93.6 | 20.9 ± 5 |  |  |  |  |  |  |  |  |  |  |  |  |  |  |  |  |  |  | logD7.4 [2]: 2.4 ^b
2 | COc1ccc(-c2nn3c(C)cc(C)nc3c2CC(=O)N(C)c2ccccc2)cc1 [DPA-813] | 3.1 ± 0.9 | 6.2 ± 1.9 | 10 | ~ 32 fold | 51 | ~ 3 fold | 1 | -13 | 15 | 3 | 4 | -1 | 25 | 10 | 4 | -16 | 13 | 4 | 10 | 3.6 | binding affinity to rat TSPO (rat TSPO): subnanomolar
3 | Cc1cc(C)n2nc(-c3ccc(OCCF)cc3)c(CC(=O)N(C)c3ccccc3)c2n1 [DPA-814] | 5.7 ± 1.8 | 7.3 ± 0.5 | 47 | 46 fold | 18 | 3 fold | 4 | -14 | 24 | 4 | -6 | 0 | 30 | 11 | 2 | -22 | 24 | 1 | 7 | 3.7 | binding affinity to rat TSPO (rat TSPO): subnanomolar
4 | CCN(CC)C(=O)[C@H]1CCCc2c1c1c(OC)cccc1n2CC[18F] [[^18F]GE180] |  |  |  |  |  |  |  |  |  |  |  |  |  |  |  |  |  |  |  |  | reduction in affinity for A147T TSPO in vitro (A147T TSPO): 5 fold
